Source: ChEMBL document CHEMBL6071200, “Discovery of Ring-Annulated Analogues of Cannabidiol as Potential Anticancer Agents: Synthesis and Biological Evaluation” (ACS Med Chem Lett, 2024)
pIC50: −log10 of the molar value. Converted amounts (≈) assume the structure as drawn. The source made the active and inactive calls. No cut-off for these calls is given here.

Assays:
[1] = Solubility of compound in water by UV absorbance based analysis; format: physicochemical
MCF7 [2] = assay: Anticancer activity against human MCF7 cells assessed as inhibition of cell growth at 4.4 uM preincubated with LY320135 for 1 hrs followed by compound addition and measured after 48 hrs by SRB assay; format: functional, cell-based
[3] = Metabolic stability in mouse liver microsomes assessed as hepatic extraction ratio at 5 uM measured upto 30 mins in presence of NADPH by LC-MS/MS analysis; format: ADME, Microsome; details: read-out: ERH
MCF7 [4] = assay: Anticancer activity against human MCF7 cells assessed as inhibition of cell growth at 4.4 uM preincubated with capsazepine for 1 hrs followed by compound addition and measured after 48 hrs by SRB assay; format: functional, cell-based
MCF7 [5] = assay: Induction of apoptosis in human MCF7 cells assessed as early apoptotic cells at 4.4 uM incubated for 24 hrs by Annexin V-FITC/PI staining based flow cytometric analysis (reference value: 2.93 %); format: functional
MCF7 [6] = assay: Induction of ROS production in human MCF7 cells assessed as DCFDA intensity at 4.4 uM incubated for 24 hrs by flow cytometric analysis (reference value: 0.95 %); format: functional
Cytochrome P450 1A2 = Cytochrome P450 1A2 (Homo sapiens, UniProt P05177); assay: Inhibition of CYP1A2 in human liver microsomes using […] substrate at 1 to 10 uM in presence of NADPH by LC-MS/MS analysis; format: ADME, Microsome; details: dose 1-10 µM
Cytochrome P450 1A2, sequence (P05177 whole entry): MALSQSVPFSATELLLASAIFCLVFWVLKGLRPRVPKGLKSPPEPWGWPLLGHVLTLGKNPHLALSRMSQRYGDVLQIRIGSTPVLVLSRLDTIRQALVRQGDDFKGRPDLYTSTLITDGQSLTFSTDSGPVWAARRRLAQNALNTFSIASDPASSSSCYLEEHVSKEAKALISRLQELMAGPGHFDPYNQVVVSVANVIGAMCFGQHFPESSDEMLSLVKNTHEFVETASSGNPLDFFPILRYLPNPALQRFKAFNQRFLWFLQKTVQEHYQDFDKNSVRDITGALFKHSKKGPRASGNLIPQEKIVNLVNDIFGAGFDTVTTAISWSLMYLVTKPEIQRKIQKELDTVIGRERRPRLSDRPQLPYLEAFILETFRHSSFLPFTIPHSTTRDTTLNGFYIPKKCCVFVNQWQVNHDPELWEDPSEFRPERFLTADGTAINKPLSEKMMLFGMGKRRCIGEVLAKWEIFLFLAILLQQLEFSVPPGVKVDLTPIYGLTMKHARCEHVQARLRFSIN

[7] = Solubility of compound in SGF by UV absorbance based analysis; format: physicochemical
[8] = Metabolic stability in human liver microsomes assessed as hepatic extraction ratio at 5 uM measured upto 30 mins in presence of NADPH by LC-MS/MS analysis; format: ADME, Microsome; details: read-out: ERH
[9] = Metabolic stability in mouse liver assessed as intrinsic clearance at 5 uM measured upto 30 mins in presence of NADPH by LC-MS/MS analysis; format: ADME, tissue-based; details: read-out: CLH
[10] = Solubility of compound in SIF by UV absorbance based analysis; format: physicochemical
[11] = Cytotoxicity against human HEK293 cells assessed as inhibition of cell growth incubated for 48 hrs by SRB assay; format: toxicity, cell-based
MCF7 [12] = assay: Induction of apoptosis in human MCF7 cells assessed as necrotic cells at 4.4 uM incubated for 24 hrs by Annexin V-FITC/PI staining based flow cytometric analysis (reference value: 4.02 %); format: functional
[13] = Metabolic stability in mouse liver microsomes assessed as intrinsic clearance at 5 uM measured upto 30 mins per mg protein in presence of NADPH by LC-MS/MS analysis; format: ADME, Microsome; details: read-out: CLH
Cytochrome P450 2C19 = Cytochrome P450 2C19 (Homo sapiens, UniProt P33261); assay: Inhibition of CYP2C19 in human liver microsomes using S-mephenytoin substrate at 1 to 10 uM in presence of NADPH by LC-MS/MS analysis; format: ADME, Microsome; details: dose 1-10 µM
Cytochrome P450 2C19, sequence (P33261 whole entry): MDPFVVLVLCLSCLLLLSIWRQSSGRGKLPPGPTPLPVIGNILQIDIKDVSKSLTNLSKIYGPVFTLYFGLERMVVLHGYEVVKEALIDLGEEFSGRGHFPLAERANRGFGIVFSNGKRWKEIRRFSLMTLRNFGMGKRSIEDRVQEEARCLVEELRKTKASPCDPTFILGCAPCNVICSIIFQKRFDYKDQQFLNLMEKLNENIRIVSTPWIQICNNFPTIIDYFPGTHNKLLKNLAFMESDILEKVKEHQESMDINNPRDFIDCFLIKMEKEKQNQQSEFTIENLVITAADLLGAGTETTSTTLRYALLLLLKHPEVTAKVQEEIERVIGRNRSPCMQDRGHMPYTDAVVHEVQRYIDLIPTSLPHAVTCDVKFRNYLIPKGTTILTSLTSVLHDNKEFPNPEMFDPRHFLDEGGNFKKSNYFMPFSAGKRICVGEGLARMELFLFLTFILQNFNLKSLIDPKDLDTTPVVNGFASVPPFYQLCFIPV

MCF7 [14] = assay: Cytotoxicity against human MCF7 cells assessed as inhibition of cell growth incubated for 48 hrs by SRB assay; format: functional, cell-based; details: MCF7, 48 h
MCF7 [15] = assay: Anticancer activity against human MCF7 cells assessed as reduction in cell viability at 4.4 uM incubated for 48 hrs by SRB assay relative to control; format: functional
MCF7 [16] = assay: Anticancer activity against human MCF7 cells assessed as inhibition of cell growth at 4.4 uM preincubated with ML-193 for 1 hrs followed by compound addition and measured after 48 hrs by SRB assay; format: functional, cell-based
MCF7 [17] = assay: Anticancer activity against human MCF7 cells assessed as inhibition of cell growth at 4.4 uM preincubated with SR144528 for 1 hrs followed by compound addition and measured after 48 hrs by SRB assay relative to control; format: functional
[18] = Metabolic stability in human liver microsomes assessed as half-life at 5 uM measured upto 30 mins in presence of NADPH by LC-MS/MS analysis; format: ADME, Microsome
HCT-116 [19] = assay: Cytotoxicity against human HCT-116 cells assessed as inhibition of cell growth at 20 uM incubated for 48 hrs by SRB assay relative to control; format: functional
HCT-116 [20] = assay: Cytotoxicity against human HCT-116 cells assessed as inhibition of cell growth incubated for 48 hrs by SRB assay; format: functional, cell-based; details: HCT-116, 48 h
[21] = Selectivity index, ratio of IC50 for HEK293 cells to IC50 for human HCT-116 cells; format: toxicity; details: HEK293 cells versus HCT-116 cells, read-out: Ratio IC50
[22] = Selectivity index, ratio of IC50 for HEK293 cells to IC50 for human MCF7 cells; format: toxicity; details: HEK293 cells versus MCF7 cells, read-out: Ratio IC50
[23] = Permeability of compound at 100 uM incubated for 16 hrs by PAMPA-BBB assay; format: ADME
MCF7 [24] = assay: Induction of apoptosis in human MCF7 cells assessed as late apoptotic cells at 4.4 uM incubated for 24 hrs by Annexin V-FITC/PI staining based flow cytometric analysis (reference value: 4.85 %); format: functional
[25] = Metabolic stability in human liver assessed as intrinsic clearance at 5 uM measured upto 30 mins in presence of NADPH by LC-MS/MS analysis; format: ADME, tissue-based; details: read-out: CLH
MCF7 [26] = assay: Induction of mitochondrial membrane loss in human MCF7 cells assessed as fold change at 4.4 uM incubated for 24 hrs by Mitotracker dye based flow cytometric analysis relative to control; format: functional
MCF7 [27] = assay: Cytotoxicity against human MCF7 cells assessed as inhibition of cell growth at 20 uM incubated for 48 hrs by SRB assay relative to control; format: functional
MCF7 [28] = assay: Cell cycle arrest in human MCF7 cells assessed as accumulation of cells at G1 phase at 4.4 uM incubated for 24 hrs by PI staining based flow cytometric analysis (reference value: 63.9 %); format: functional
MCF7 [29] = assay: Induction of apoptosis in human MCF7 cells assessed as viable cells at 4.4 uM incubated for 24 hrs by Annexin V-FITC/PI staining based flow cytometric analysis (reference value: 88.20 %); format: functional; details: read-out: Activity
[30] = Metabolic stability in mouse liver microsomes assessed as half-life at 5 uM measured upto 30 mins in presence of NADPH by LC-MS/MS analysis; format: ADME, Microsome
MCF7 [31] = assay: Cell cycle arrest in human MCF7 cells assessed as accumulation of cells at G2/M phase at 4.4 uM incubated for 24 hrs by PI staining based flow cytometric analysis (reference value: 13.7 %); format: functional
MCF7 [32] = assay: Cell cycle arrest in human MCF7 cells assessed as accumulation of cells at S phase at 4.4 uM incubated for 24 hrs by PI staining based flow cytometric analysis (reference value: 22.93 %); format: functional
MCF7 [33] = assay: Anticancer activity against human MCF7 cells assessed as inhibition of cell growth at 4.4 uM preincubated with GW9662 for 1 hrs followed by compound addition and measured after 48 hrs by SRB assay; format: functional, cell-based
[34] = Metabolic stability in human liver microsomes assessed as intrinsic clearance at 5 uM measured upto 30 mins per mg protein in presence of NADPH by LC-MS/MS analysis; format: ADME, Microsome; details: read-out: CLH
MCF7 [35] = assay: Inhibition of colony formation in human MCF7 cells assessed as reduction in number of colonies at subtoxic doses measured after 48 hrs by crystal violet staining based analysis; format: functional, cell-based

With `C=C(C)[C@@H]1CCC(C)=C[C@H]1c1c(O)cc(CCCCC)c2c1OCN(C1CCC1)C2` the solubility [1] was 40 µg/mL (≈ 97.7 µM), the Activity (MCF7 [2]) was “Active” and the hepatic extraction ratio at 0.5 h, 5 µM [3] was 0.87. The Activity (MCF7 [4]) was “Active”, the Activity (MCF7 [5]) was 7.61% and the Activity (MCF7 [6]) was 17.87%. The “inhibition (INH)” value (Cytochrome P450 1A2) was “Active”, the solubility [7] was > 1500 µg/mL and the hepatic extraction ratio at 0.5 h, 5 µM [8] was 0.81. The CLint scaled at 5 µM [9] was 580 mL/min/kg, the solubility [10] was > 1500 µg/mL and the IC50 at 48 h [11] was 28.1 µM. For the same compound, the Activity (MCF7 [12]) was 6.2%, the microsomal CLint at 5 µM [13] was 146 µL/min/mg and the “inhibition (INH)” value (Cytochrome P450 2C19) was “Active”. For the same compound, the pIC50 (MCF7 [14]) was 5.36, the Activity (MCF7 [15]) was 48.65% and the Activity (MCF7 [16]) was “Active”. For the same compound, the inhibition at 4.4 µM (MCF7 [17]) was ~17%, the half-life at 5 µM [18] was 18 min and the inhibition at 20 µM (HCT-116 [19]) was 63.4%. It also gave a pIC50 (HCT-116 [20]) of 5.07, a selectivity ratio [21] of 3.2 and a selectivity ratio [22] of 6.4. For the same compound, the permeability [23] was “Impermeable”, the Activity (MCF7 [24]) was 18.39% and the CLint scaled at 5 µM [25] was 90 mL/min/kg. The “fold change (FC)” value (MCF7 [26]) was 5, the inhibition at 20 µM (MCF7 [27]) was 84.9% and the Activity (MCF7 [28]) was 73.84%. For the same compound, the viability at 4.4 µM (MCF7 [29]) was 67.8%, the half-life at 5 µM [30] was 10 min and the Activity (MCF7 [31]) was 10.42%. The Activity (MCF7 [32]) was 15.74%, the Activity (MCF7 [33]) was “Active” and the microsomal CLint at 5 µM [34] was 77 µL/min/mg. The inhibition (MCF7 [35]) was “Active”.
